Columns and labels:
SK-MEL-2 = assay: Cytotoxic activity against human melanoma SK-MEL-2 was determined; assay type: functional; conditions: read-out: ED50 (the source's name)
MCF7 = assay: Cytotoxic activity against human breast cancer MCF-7 cell line was determined; assay type: functional; conditions: read-out: ED50 (the source's name)
Cancer cell lines = assay: Average cytotoxic activity (AC) in three cancer cell lines A549, SK-MEL-2 and MCF-7 was calculated; assay type: functional, Homo sapiens; design: unit not given beside the values
A549 = assay: Cytotoxic activity against human lung cancer A549 cell line was determined; assay type: functional; conditions: read-out: ED50 (the source's name)

Compound	EC50 (SK-MEL-2)	EC50 (MCF7)	AC (Cancer cell lines)	EC50 (A549)
COc1cc([C@@H]2c3cc4c(cc3C[C@H]3COC(=O)[C@@H]32)OCO4)cc(OC)c1OC [DESOXYPODOPHYLLOTOXIN]	8.4 nM	11.7 nM	11.9	15.5 nM
COc1cc(C2=C(c3ccc4c(c3)OCO4)COC2=O)cc(OC)c1OC	70.8 nM	80.4 nM	83.8	100 nM
COc1cc(C2=C(c3ccc(N)cc3)COC2=O)cc(OC)c1OC	49.3 nM	33 nM	45.7	54.7 nM
COc1ccc(C2=C(c3cc(OC)c(OC)c(OC)c3)C(=O)OC2)cc1O	10.2 nM	11.4 nM	12.6	16.3 nM
COc1cc(-n2c(-c3ccc4c(c3)OCO4)coc2=O)cc(OC)c1OC	64.5 nM	64.5 nM	64.5	64.5 nM
COc1ccccc1C1=C(c2cc(OC)c(OC)c(OC)c2)C(=O)OC1	> 5000 nM	> 5000 nM	>5000	> 5000 nM

From ChEMBL document CHEMBL1135215, “Synthesis and cytotoxicity of 3,4-diaryl-2(5H)-furanones” (2002)
